Reference: ChEMBL document CHEMBL3886244, “Benzoxazole- and tetrahydrobenzoxazole-substituted pyridazinones as GPR119 agonists” (2014)

target: T1, Glucose-dependent insulinotropic receptor (Homo sapiens, UniProt Q8TDV5); test: AlphaScreen cAMP Assay: MIN6 cells [Miyazaki J et al. Endocrinology. 1990 July; 127(1):126-32] were stably transfected with an expression vector for human GPR119 cDNA (Acc. No. NP-848566). Min-6/hGPR119 cells are cultured in DMEM, 10% FBS, 50 uM beta-mercaptoethanol, 0.3 mg/mL Geniticin, 2 mM GlutaMAX at 37 C. 5% CO2. For the assay, the cells are placed in Optiplates (white, 384-well, 160W-barcoded, TC, sterile with lid, Cat. No. #6007688 (Perkin Elmer); 10000 cells/well; 50 ul). The plates covered with lids are then incubated for 24 hours at 37 C./5% CO2.After the medium has been sucked out of the wells completely, 10 ul of the test compound are added, the compounds are diluted beforehand with stimulating buffer (140 mM NaCl, 3.6 mM KCl, 0.5 mM NaH2PO4, 0.5 mM MgSO4, 1.5 mM CaCl2, 10 mM Hepes, 5 mM NaHCO3; pH 7.4. 0.5 mM IBMX and 0.1% BSA, the final DMSO concentration is 1%). After 45 minutes' incubation at RT, the cAMP concentrations are determined using the AlphaScreen cAMP Assay.; type: functional, cell-based
T1 sequence (Q8TDV5 whole entry): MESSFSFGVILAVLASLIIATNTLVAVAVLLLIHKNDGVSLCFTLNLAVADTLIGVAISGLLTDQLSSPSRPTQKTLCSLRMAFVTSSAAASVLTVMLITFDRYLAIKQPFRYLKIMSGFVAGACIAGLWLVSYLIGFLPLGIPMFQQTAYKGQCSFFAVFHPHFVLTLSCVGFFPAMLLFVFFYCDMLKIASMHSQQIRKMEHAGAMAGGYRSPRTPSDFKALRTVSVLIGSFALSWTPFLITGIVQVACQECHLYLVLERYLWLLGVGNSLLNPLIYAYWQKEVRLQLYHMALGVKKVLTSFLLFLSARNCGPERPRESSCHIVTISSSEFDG

EC50	Compound
267 nM	CC1CC(=O)NN=C1c1ccc2nc(-c3ccsc3)oc2c1 (stereo not drawn)
114 nM	CCOc1ccc(-c2nc3ccc(C4=NNC(=O)CC4CC)cc3o2)cc1 (stereo not drawn)
> 10000 nM	CC[C@H]1CC(=O)NN=C1c1ccc2nc(-c3ccccc3)oc2c1
